What was measured:
[1] = biodistribution in mice with subcutaneous U87 tumor cells (gamma counter); assay type: in vivo, athymic BALB/C mice
Description: . After acute sedation with isofluorane (2%) animals were sacrificed by decapitation at 15 and 60 min following tracer injection. Blood samples were collected and portions of the liver, kidneys, heart, lungs, muscles, stomach, large intestine, small intestine, bladder, spleen, brain and femur were dissected and weighed. Radioactivity of each sample was measured using a gamma counter (1480 Wizard™ 3 Automatic Gamma Counter, PerkinElmer). Decay-corrected radioactivity concentrations were calculated as percentage of injected dose per gram tissue (% ID/g).

U87 tumor cells = assay: dynamic PET imaging in mice with orthotopically implanted U87 tumor cells; assay type: in vivo, athymic BALB/C mice
Description: Rodent imaging experiments were performed on a dedicated small animal microPET® F120™ scanner (Siemens Preclinical Solutions, Knoxville, Tenn.). Both static and dynamic PET imaging studies were conducted on athymic BALB/C mice (Harlan) and stereotactically implanted U87 tumor cells. The mice were administered about 6.4-7.4 MBq (0.17-0.2 mCi) of [^18F]-Cabozantinib via the tail vein. The mice were anesthetized (2% isofluorane in O2 at a flow rate of 1 mL/min) during tracer injection and throughout the imaging period. After injection, each mouse was laid in the microPET scanner. A 10 minutes transmission scan was acquired using a ^57Co point source prior to either the 2 hour dynamic scan or the 45 min static scan starting at about 15 minutes after injection. Mice were visually monitored for breathing, and a heating pad was used to maintain body temperature throughout the entire procedure. […] Data were analyzed by manually drawing standardized volumes of interest using the Siemens ASIPro VM software package version 6.6. […]
FIG. 3 depicts Positron Emission Tomography (PET) images of mice injected with [^18F]-Cabozantinib. […] A tumor:brain ratio, which is the ratio of the amount of [^18F]-Cabozantinib in the tumor compared to the amount of [^18F]-Cabozantinib in the brain in non-tumor regions, of 2.6 to 2.8 was measured for U87 stereotactically implanted tumor cells. […]

[2] = dynamic PET imaging in tumor-free control mice; assay type: in vivo, athymic BALB/C mice
Description: Rodent imaging experiments were performed on a dedicated small animal microPET® F120™ scanner (Siemens Preclinical Solutions, Knoxville, Tenn.). Both static and dynamic PET imaging studies were conducted on athymic BALB/C mice (Harlan) and stereotactically implanted U87 tumor cells. The mice were administered about 6.4-7.4 MBq (0.17-0.2 mCi) of [^18F]-Cabozantinib via the tail vein. The mice were anesthetized (2% isofluorane in O2 at a flow rate of 1 mL/min) during tracer injection and throughout the imaging period. After injection, each mouse was laid in the microPET scanner. A 10 minutes transmission scan was acquired using a ^57Co point source prior to either the 2 hour dynamic scan or the 45 min static scan starting at about 15 minutes after injection. Mice were visually monitored for breathing, and a heating pad was used to maintain body temperature throughout the entire procedure. PET data were reconstructed using an OSEM 2D algorithm into a 128×128×95 image matrix (resulting in final voxel dimensions of 0.79×0.79×0.8 mm). Dead time, decay correction, attenuation correction, and normalization were applied to all PET data. Data were analyzed by manually drawing standardized volumes of interest using the Siemens ASIPro VM software package version 6.6. […]

[3] = radiometabolite analysis in mouse plasma (radio-TLC)

COc1cc2nccc(Oc3ccc(NC(=O)C4(C(=O)Nc5ccc([18F])cc5)CC4)cc3)c2cc1OC [[^18F]-Cabozantinib, cyclopropane-1,1-dicarboxylic acid [4-(6,7-dimethoxy-quinolin-4-yloxy)-phenyl]-amide(4-[^18F]-fluoro-phenyl)amide]
tracer uptake blood ([1]; 15 minutes post injection, n=6): 1.8±0.2 % ID/g
tracer uptake brain ([1]; 15 minutes post injection, n=6): 0.9±0.2 % ID/g
tracer uptake femur ([1]; 15 minutes post injection, n=6): 2.9±1.0 % ID/g
tracer uptake heart ([1]; 15 minutes post injection, n=6): 12.9±3.2 % ID/g
tracer uptake kidneys ([1]; 15 minutes post injection, n=6): 14.2±3.0 % ID/g
tracer uptake large intestines ([1]; 15 minutes post injection, n=6): 4.7±2.1 % ID/g
tracer uptake liver ([1]; 15 minutes post injection, n=6): 14.4±3.1 % ID/g
tracer uptake lungs ([1]; 15 minutes post injection, n=6): 6.5±1.1 % ID/g
tracer uptake muscles ([1]; 15 minutes post injection, n=6): 4.4±1.1 % ID/g
tracer uptake small intestines ([1]; 15 minutes post injection, n=6): 7.0±2.4 % ID/g
tracer uptake spleen ([1]; 15 minutes post injection, n=6): 4.7±1.2 % ID/g
tracer uptake stomach ([1]; 15 minutes post injection, n=6): 5.2±1.7 % ID/g
tracer uptake bladder ([1]; 60 minutes post injection, n=6): 4.3±1.2 % ID/g
tracer uptake blood ([1]; 60 minutes post injection, n=6): 2.2±0.3 % ID/g
tracer uptake brain ([1]; 60 minutes post injection, n=6): 0.9±0.1 % ID/g
tracer uptake femur ([1]; 60 minutes post injection, n=6): 1.8±0.8 % ID/g
tracer uptake heart ([1]; 60 minutes post injection, n=6): 9.5±1.5 % ID/g
tracer uptake kidneys ([1]; 60 minutes post injection, n=6): 11.7±1.5 % ID/g
tracer uptake large intestines ([1]; 60 minutes post injection, n=6): 4.6±0.9 % ID/g
tracer uptake liver ([1]; 60 minutes post injection, n=6): 14.0±1.9 % ID/g
tracer uptake lungs ([1]; 60 minutes post injection, n=6): 4.9±0.8 % ID/g
tracer uptake muscles ([1]; 60 minutes post injection, n=6): 4.2±0.3 % ID/g
tracer uptake small intestines ([1]; 60 minutes post injection, n=6): 10.7±1.1 % ID/g
tracer uptake spleen ([1]; 60 minutes post injection, n=6): 3.6±0.6 % ID/g
tracer uptake stomach ([1]; 60 minutes post injection, n=6): 8.4±1.5 % ID/g
crossing of the blood brain barrier ([1]; biodistribution, 15 and 60 minutes): did not appear to cross the blood brain barrier
SUV mean, tumor uptake (U87 tumor cells; orthotopically implanted U87 mice, n=3): 0.50
time of maximal tumor uptake post injection (U87 tumor cells; time activity curves over 2 hour period): 60 min
SUV mean, uptake in the brain ([2]; tumor-free control mice, summed PET images): 0.19
crossing of the blood brain barrier ([2]; tumor-free mice, PET): does not cross the blood brain barrier
radiometabolites seen in plasma [3]: Only one radiometabolite
tracer remaining intact in plasma ([3]; 15 and 60 minutes after injection): over 80%

From patent publication US11124481B2 (Exelixis, Inc., priority 2014, dated 2021)
